Measured values: patent publication US8871452B2, “Methods for treatment of cardiovascular disease” (The Brigham and Women's Hospital, Inc., priority 2000, dated 2014)
Entries after “also recorded” stand apart in the source; their conditions may differ. Numbered stars: 1 amine (or outer) side, 2 acyl side, 3 side chain; on linkers, the order of the positions; unused ones are H or OH. Bridge positions count the residues as written; N and C are the ends. Square brackets hold non-standard residues; d marks the D form. Peptide text beside a SMILES is read from it. I, II: the chains in the order shown. Actinocin(9to1) = Cc1c2oc3c(C)ccc(C(=O)[*:1])c3nc-2c(C(=O)[*:2])c(N)c1=O; NMeV = CN[C@H](C(=O)O)C(C)C; Sar = CNCC(=O)O

How the values were obtained:
[1] = test system: Fit-1 mRNA expression; test: Northern blot of Fit-1 (T1/ST2) mRNA induction in cultured neonatal rat cardiac myocytes, with or without 8% cyclic mechanical strain; type: cell-based; conditions: for induction of Fit-1 mRNA expression by 8% mechanical strain: FIG. 4, applied during strain, actinomycin D 5 μg/ml (2 and 4 hours), cyclohexamide 10 μg/ml; for strain-induced induction of Fit-1 mRNA expression / Fit-1 mRNA expression in the absence of strain: FIG. 3, H2O2 100 uM, TIRON 10 mN; for strain-induced induction of Fit-1 mRNA expression: 8% mechanical strain; for induction of Fit-1 mRNA expression in the absence of mechanical strain: FIG. 2, 3 hours, Ang II 50 nM; for induction of Fit-1 mRNA expression in the absence of mechanical strain / rank order potency for the induction of Fit-1 mRNA expression / induction of Fit-1 mRNA expression, agent alone: IL-1β 10 ng/ml; for induction of Fit-1 mRNA expression in the absence of mechanical strain / rank order potency for the induction of T1/ST2 mRNA expression: PMA 200 nM; for rank order potency for the induction of Fit-1 mRNA expression: 8% strain; for rank order potency for the induction of Fit-1 mRNA expression / induction of Fit-1 mRNA expression, agent alone: PMA 100 ng/ml; for induction of Fit-1 mRNA expression, agent alone: no strain; for rank order potency for the induction of T1/ST2 mRNA expression: strain 8%
Source text: The approach to mechanical stimulation used an apparatus that has multiple platens that contact the underside of silicone elastomer membranes to apply a spatially isotropic biaxial strain profile to the membrane (Schaffer J L, et al., J Orthop Res, 1993, 12:709-719; and U.S. Provisional Patent Application Ser. No. 60/144,134 filed on Jul. 16, 1999 entitled “AN APPARATUS FOR STUDYING MYOCARDIAL MECHANICAL OVERLOAD HYPERTROPHY AND USES THREFOR, by Richard T. Lee, and bearing and express mail no. EL110243781US). Six individual 78 mm membranes can be stretched at once with varying amplitudes of strain by controlling displacement of each platen with a stepper motor. Measured Green strains are accurate to ˜±0.25% at strains from 1-14% (Cheng G C, et al., Circ Res, 1997, 80:28-36; Brown T D, J Biomechanics, 2000, 33:3-14). Throughout this study, 8% biaxial strain was used.
Neonatal rat ventricular myocytes (NRVM) from 1-day old Sprague-Dawley rats were isolated by previously described methods (Springhorn J P, and Claycomb W C., Biochem J, 1989; 258:73-78; Arstall M A, et al., J Mol Cell Cardiol, 1998, 30:1019-25). NRVM were plated on the coated membrane dish at a density of 2,000,000 cells/dish in DMEM containing 7% FCS and incubated 24 h. Approximate cell confluence was 85-90%. NRVM were then made quiescent by washing with 10 ml of Hanks' balanced salt solution (HBSS, 138 mM NaCl, 5.3 mM KCl, 4.0 mM NaHCO3, 1.3 mM CaCl2, 0.5 mM MgCl2, 0.4 mM MgSO4, 0.4 mM KH2PO4, 0.3 mM Na2HPO4, 5.6 mM glucose; Life Technologies, Inc., Rockville, Md.) twice and incubating with 26 ml of DMEM containing 0.2% FCS for 48-72 hours.
The cDNA clones for differentially expressed genes were obtained by PCR using the GenBank sequences. Each clone was sequenced from both 5′ and 3′ ends to confirm identity. Positive elements in the DNA microarray were confirmed by Northern blot hybridization analysis in at least three independent experiments using three different sources of NRVMs. Total RNA was isolated by the guanidium thiocyanate and phenol chloroform method (Chomcyznski, et al., Anal. Biochem., 1987, 162:156-159). For Northern blotting, 15 μg RNA was loaded on a 1.0% agarose-formaldehyde gel (2.0 mol/l), transferred to a nylon membrane (Amersham Pharmacia Biotech AB, Piscataway, N.J.), and UV cross-linked with a UV Stratalinker (Stratagene, Inc., La Jolla, Calif.). Each probe was hybridized with ExpressHyb solution (Clontech Labs., Inc., Palo Alto, Calif.) at 68° C. for 1 hour. The membrane was washed with 2×SSC, 0.05% SDS solution for 30 to 40 minutes and three times at room temperature and 0.1×SSC, 0.1% SDS solution with continuous shaking at 50° C. for 40 minutes. The membrane was exposed to film at −80° C., and radiographs were scanned and analyzed with Optimas 5.0 software (Optimas Co./Media Cybernetics, Silver Springs, Md.). Densitometric units were normalized to the ethidium-stained 28S ribosomal subunit on the membrane.
T1/ST2 mRNA is induced by mechanical strain in cultured neonatal cardiac myocytes. Neonatal rat ventricular myocytes were isolated by collagenase digestion, plated on fibronectin-coated silicone membrane dishes at a density of 3.5 million cells/dish in 13 ml media as previously described (Yamamoto K, et al. J Biol Chem. 1999; 274:21840-21846). This technique yields cultures with ≧95% myocytes. Mechanical deformation was applied using a device that provides uniform biaxial cyclic strain as previously described (Yamamoto K, et al. J Biol Chem. 1999; 274:21840-21846). RNA was extracted (Qiagen) and Northern blotting was performed using as a probe a ^32P-labelled 600 bp PCR fragment specific to rat T1/ST2. Maximal induction occurs at 3 hours, is sustained for 9 hours and declines by 15 hours.

[2] = test system: T1/ST2 mRNA; test: T1/ST2 mRNA induction in human adult vascular smooth muscle cells; type: cell-based
[3] = FIG. 9, interleukin-1 10 ng/ml, 1 and 3 hours

Cc1c2oc3c(C)ccc(C(=O)N[C@@H]4C(=O)N[C@H](C(C)C)C(=O)N5CCC[C@H]5C(=O)N(C)CC(=O)N(C)[C@@H](C(C)C)C(=O)O[C@@H]4C)c3nc-2c(C(=O)N[C@@H]2C(=O)N[C@H](C(C)C)C(=O)N3CCC[C@H]3C(=O)N(C)CC(=O)N(C)[C@@H](C(C)C)C(=O)O[C@@H]2C)c(N)c1=O [Actinomycin D, actinomycin D] (I: T[dV]P[Sar][NMeV] / II: T[dV]P[Sar][NMeV]; ester I:1-I:C, II:1-II:C; linker I:N-II:N via Actinocin(9to1)) was tested, and the “induction of Fit-1 mRNA expression by 8% mechanical strain” value [1] was “blocked”.
OO [H2O2, hydrogen peroxide] was tested, and the “strain-induced induction of Fit-1 mRNA expression” value [1] was “blocks” and the “Fit-1 mRNA expression in the absence of strain” value [1] was “does not induce”.
For CCCCCCCCCCCCCC(=O)O[C@@H]1[C@@H](C)[C@@]2(O)[C@@H](C=C(CO)C[C@]3(O)C(=O)C(C)=C[C@@H]23)[C@@H]2C(C)(C)[C@]12OC(C)=O [PMA], the “induction of Fit-1 mRNA expression in the absence of mechanical strain” value (“induction … of mechanical strain” for short) [1] was “associated with an induction”, the “rank order potency for the induction of Fit-1 mRNA expression” value ([1]; FIG. 5) was “PMA>strain>IL-1β” and the “induction of Fit-1 mRNA expression, agent alone” value ([1]; FIG. 5) was “strongest induction”. The “rank order potency for the induction of T1/ST2 mRNA expression” value [1, 3] was “PMA>strain>interleukin-1β; also recorded: PMA>strain>IL-1” and the “induction of T1/ST2 mRNA” value [2] was “not”.
In the case of O=S(=O)(O)c1cc(O)c(O)c(S(=O)(=O)O)c1 [TIRON], the “strain-induced induction of Fit-1 mRNA expression” value [1] was “slightly attenuated” and the “Fit-1 mRNA expression in the absence of strain” value [1] was “slightly attenuated”.
With C[C@@H]1C[C@@H]([C@H](O)CC2CC(=O)NC(=O)C2)C(=O)[C@@H](C)C1 [cyclohexamide] the “induction of Fit-1 mRNA expression by 8% mechanical strain” value [1] was “blocked”.
For IL-1β: interleukin-1β, cytokine, the “induction of T1/ST2 RNA, agent alone” value [1] was “induce”, the “induction … of mechanical strain” value [1] was “associated with an induction” and the “induction of Fit-1 by mechanical strain in the presence of IL-1β” value ([1]; FIG. 5, 8% strain plus IL-1β 10 ng/ml) was “not further increased”. The “rank order potency for the induction of Fit-1 mRNA expression” value ([1]; FIG. 5) was “PMA>strain>IL-1β”, the “induction of Fit-1 mRNA expression, agent alone” value ([1]; FIG. 5) was “induced” and the “induction of T1/ST2 by mechanical strain in the presence of interleukin-1β” value ([1]; FIG. 9, 8% strain plus interleukin-1 10 ng/ml, 1 and 3 hours) was “not further increased”. For the same molecule, the “rank order potency for the induction of T1/ST2 mRNA expression” value [1, 3] was “PMA>strain>interleukin-1β”, the “rank order potency for the induction of T1/ST2 mRNA expression” value ([1]; FIG. 9, interleukin-1 10 ng/ml, 1 and 3 hours, listed as IL-1) was “PMA>strain>IL-1” and the “induction of T1/ST2 mRNA in the presence of infection with control adenovirus” value ([1]; FIG. 10, interleukin-1 10 ng/ml, 4 hours) was “induced”. The “induction of T1/ST2 mRNA” value [2] was “induced”.
“angiotensin II (DRVYIHPF; Angiotensin-2; UniProt P01019 25-32, looked up)” was tested, and the “induction … of mechanical strain” value [1] was “did not induce”.
tumor necrosis factor was tested, and the “induction of T1/ST2 mRNA” value [2] was “not”.
